Laboratory results as given in a melting point compilation (Tetko et al.; mined from patent text by program, amines drawn as free bases though some values may be those of a salt).

Row | Structure (SMILES) | melting point
1 | O=c1c(Br)cc(-c2ccncn2)cn1Cc1ccccc1 | 189 to 192 °C
2 | CC(NC(=S)NCC(COC(=O)C(C)(C)C)Cc1ccc(C(C)(C)C)cc1)c1ccc(NS(C)(=O)=O)c(F)c1 (stereo unspecified) | 78 °C
3 | COc1ccc(-c2c(C#N)nn(-c3c(Cl)cc(C(F)(F)F)cc3Cl)c2N)cc1 | 222 °C
4 | Cc1cc(C)cc(OCC(C)O)c1 (stereo unspecified) | 48.7 to 49.5 °C
5 | O=C(C1CC1)N1CCN(C(=O)c2cc(C(F)(F)F)cc(C(F)(F)F)c2)[C@H](Cc2c[nH]c3ccccc23)C1 | 109 to 114 °C
6 | CC1=Nc2ccc(S(N)(=O)=O)cc2S(=O)(=O)N1 | 295 to 297 °C
7 | CCCCCCCCCCCCCCCC(=O)N[C@H]1CCCNC(=O)C1 | 99 to 100 °C
8 | CC(=O)OC1CSC(Oc2cncc(-c3cccc(C#N)c3)c2)C(OC(C)=O)C1OC(C)=O (stereo unspecified) | 130 to 131 °C
9 | O=c1[nH]c2ccccc2n1CCNCc1ccc(CN2CCCCC2)o1 | 83 to 85 °C
10 | CCOC(=O)Nc1nc2c(c3c(CCNS(C)(=O)=O)n(C)nc13)CCCC2 | 214 to 215 °C
11 | CS(=O)(=O)c1ccc(-c2cnn(-c3cccc(Cl)c3)c(=O)c2OCc2ccccc2)cc1 | 110 to 113 °C
12 | NS(=O)(=O)N1CC2(CCN(C(=O)Nc3nnc(-c4ccccc4)s3)CC2)c2ccccc21 | > 300 °C
13 | COc1nnc(-c2ccccc2)cc1C | 62 to 64 °C
14 | COc1c2c(c(OC)c(OC)c1OC)CCC(CCn1nnc3ccccc31)CC2 | 99 to 101 °C
15 | CC(C)CN1C(=O)N(C)C2(NC(=O)NC2=O)c2ccccc21 (stereo unspecified) | 270 °C
16 | CC(C)CNc1ccccc1CS(=O)c1nc2ncccc2[nH]1 (stereo unspecified) | 116 °C
17 | Cc1nn(C)c(C(=O)C(C#N)c2ccc(C(C)(C)C)cc2)c1C (stereo unspecified) | 178 °C
18 | COc1ccc(-c2nc(SCC(C)=O)[nH]c2-c2ccc(OC)cc2)cc1 | 115 to 118 °C
19 | COC(=O)c1ccc(-c2ncc(-c3ccc4c(c3)C(C)(C)CCC4(C)C)o2)cc1 | 153 to 155 °C
20 | Cc1nc2ccccc2c2c1OC(C)CN2 (stereo unspecified) | 169 to 170 °C
21 | NC(=O)c1sc(-n2cnc3cnc(Cl)cc32)cc1OCc1ccccc1C(F)(F)F | 248 to 249 °C
22 | CC(=O)NC(Cc1c[nH]c2ccccc12)C(=O)C=Cc1cc(C(F)(F)F)cc(C(F)(F)F)c1 (stereo unspecified) | 68 to 70 °C

Row | Structure (SMILES) | melting point
23 | CCOc1ccc([N+](=O)[O-])c(NC2CCCCCC2)c1 | 83 °C
24 | Cc1ncccc1C(C#N)N1CCN(C(=O)Cc2ccc(OCc3ccc4ccccc4n3)cc2)CC1 (stereo unspecified) | 64 to 68 °C
25 | CC(C)(C)C(=O)COc1ccc(S(=O)(=O)c2ccccc2)cc1 | 105 to 108 °C
26 | CC(C)CCOc1c(Cl)c(Sc2ccccc2N)c(OCCC(C)C)c2c1C(=N)NC2=N | 175 to 176 °C
27 | C#CCC#CCON1C(=O)c2ccccc2C1=O | 134 to 135 °C
28 | COc1cc(CCCCCCCO)ccc1OCc1nc(-c2ccccc2)oc1C | 78 to 79 °C
29 | COC(=O)C(=O)c1ccc(OC/C=C/c2c(C(C)C)nc3ccccc3c2-c2ccc(F)cc2)cc1 | 109 to 111 °C
30 | CSc1c(C)cc(O)c(C(=O)Nc2ccc(S(=O)(=O)C(F)(F)F)cc2Cl)c1C | 201 to 202 °C
31 | CC1OC(=Nc2nccs2)c2c1nc1ccccc1c2O (stereo unspecified) | > 270 °C
32 | O=S(=O)(c1ccccc1)n1ccc2c(OCC3CO3)cccc21 (stereo unspecified) | 96 °C
33 | O=C(O)COc1ccc(OCCC(c2ccccc2)(c2ccccc2)c2ccccc2)cc1 | 66 to 68 °C
34 | FC(F)(F)c1ccc(C=Cc2nc[nH]n2)cc1 | 141 to 143 °C
35 | CCCCc1nn(-c2cc(NC(=O)CC)ccc2Cl)c(=O)n1Cc1ccc(-c2cc(CC)ccc2S(=O)(=O)NC(=O)c2ccccc2Cl)cc1 | 144 to 146 °C
36 | CCOC(=O)Oc1ncc(F)c(N=CN(C)C)n1 | 124 to 126 °C
37 | CC(N)Cc1ncc(O)c(C(=O)c2ccccc2)c1C(=O)c1ccccc1 (stereo unspecified) | 110 to 112 °C
38 | CC(C)(O)c1ccoc1C(=O)c1[nH]c2cc(Cl)ccc2c1CC(=O)O | 229 to 230 °C
39 | O=c1[nH]c2cc(S(=O)c3cccc4cnccc34)c([N+](=O)[O-])cc2s1 (stereo unspecified) | > 270 °C
40 | O=C(O)/C=C(\c1cc(F)cc(F)c1)C(F)(F)F | 129 to 130 °C
41 | CCOC(=O)C(=CNc1ncnc2cc(C)c(C)cc12)C(=O)OCC | 146 to 148 °C
42 | COc1cc2ncnc(N3CCC(C(C)CN4CCC(C)NS4(=O)=O)CC3)c2cc1OC (stereo unspecified) | 172 to 175 °C
43 | OCCc1nnc(S)s1 | 101 to 103 °C
44 | CCOC(=O)c1cnc2c3cc(NS(C)(=O)=O)ccc3ncn2c1=O | 310 to 312 °C

Row | Structure (SMILES) | melting point
45 | COc1ccc2c(=O)c(C(N)=O)c(N)oc2c1 | 265 to 266 °C
46 | Cc1ccc(S(=O)(=O)Nc2cc3c(c(C(=O)O)c2)NCCC3)cc1 | 251 °C
47 | O=Cc1ccc(NCc2ccc(F)cc2)cn1 | 167 to 169 °C
48 | CSc1ccc(C2=NNC(C(=O)OC(C)(C)C)S2)cc1 (stereo unspecified) | 71 to 72 °C
49 | CCc1c(-c2ccncn2)ssc1=S | 100 to 102 °C
50 | Cc1noc(-c2ccc(C(=O)N3Cc4cccn4Cc4ccccc43)cc2)n1 | 177 to 179 °C
51 | NCC(C(=O)O)c1c[nH]c2cc(Cl)ccc12 (stereo unspecified) | 245 to 247 °C
52 | COP(=S)(OC)Oc1nc(OCc2ccccc2)sc1C#N | 47 °C
53 | O=CNCc1ccc2[nH]cc(CCN3C(=O)c4ccccc4C3=O)c2c1 | 45 °C
54 | Cc1ccc2ccc(NCc3c(C)c(CNc4ccc5ccc(C)nc5n4)c(C)c(CNc4ccc5ccc(C)nc5n4)c3C)nc2n1 | 207 to 208 °C
55 | CCc1nnc(-c2ccc(O)cc2)n1-c1ccccc1 | 275 °C
56 | Cc1c(NC(=O)c2ccccc2NCc2ccc(=O)[nH]c2)cccc1C(F)(F)F | 191 to 192 °C
57 | CC(C)CC(=O)N[C@H]1N=C(c2ccccc2)c2ccccc2N(C)C1=O | 83 to 102 °C
58 | CCCC(CCC)n1[nH]c(Cc2c(C)n(C(=O)c3ccc(Cl)cc3)c3ccc(OC)cc23)cc1=O | 167 to 168 °C
59 | O=C(NN=C(Cc1ccccc1)c1ccccn1)OCc1ccccc1 | 155 °C
60 | COC(=O)c1nc(S(C)(=O)=O)ncc1Cl | 96 °C
61 | CCOC(=O)c1nc(C(=O)Oc2ccccc2)sc1N | 168 °C
62 | OC1c2ccccc2CCC12CCCCN2 (stereo unspecified) | 125 to 127 °C
63 | CNC1(c2ccccc2Cl)C(=O)Nc2ccc(C)cc21 (stereo unspecified) | 186 to 187 °C
64 | COc1ccc2cc(-c3ncno3)ccc2n1 | 150 to 152 °C
65 | CCCn1cc(C(=O)OCC)c(=O)c2ccoc21 | 130 °C

The remaining lines, values ahead:

Row | melting point | Structure (SMILES)
66 | 187 °C | CC(C)(C)C(COC(N)=O)(NC(=O)c1ccccc1)c1c[nH]c2ccc(Br)cc12 (stereo unspecified)
67 | 174 to 176 °C | O=C(C#Cc1ccccc1)Nc1nc2ccccc2s1
68 | 133 to 135 °C | Cc1ccc(CC2CCN(C(=O)C(=O)Nc3ccc4[nH]c(=O)oc4c3)CC2)cc1
69 | 147 to 149 °C | CC(C)Cn1c(CNC(=O)OC(C)(C)C)c(-c2ccc(Cl)cc2)c2cc(/C=C/C(=O)O)ccc2c1=O
70 | 177 to 178 °C | CCCC(=O)Nc1c(C)c(C)c2c(c1C)C(c1ccc(C(C)C)cc1)CO2 (stereo unspecified)
71 | 59 to 61 °C | NCCCNC(c1ccccc1)(c1ccccc1)c1ccccc1
72 | 88 to 89 °C | COc1cncc(OC)c1CCCO
73 | 85 to 87 °C | CCCCOC(=O)[C@H]1CN(c2ccc3c(c2)sc(=O)n3C)C(=O)O1
74 | 118 to 119 °C | Cc1ccc(CCCNCC(O)c2cc3ccccc3o2)cc1 (stereo unspecified)
75 | 201 to 205 °C | CNc1c(F)cc2c(=O)c(C(=O)O)cn(-c3nc(NCCO)c(F)cc3F)c2c1Cl
76 | 203 to 204 °C | COc1ncc(F)c2nc(S(=O)(=O)Nc3c(F)cc(Cl)cc3F)nn12
77 | 217 to 219 °C | COc1ccc(S(=O)(=O)N2C(=O)C(O[Si](C)(C)C)(c3ccccc3Cl)c3cc(Cl)c(OC)cc32)c(OC)c1 (stereo unspecified)
78 | 263 to 265 °C | Oc1cccc2c1CCC(n1cc[nH]c1=S)C2 (stereo unspecified)
79 | 84 to 85 °C | C=Cc1c(CC)nc(CC)c(CO)c1-c1ccccc1
80 | 88 to 89 °C | COc1c(C)c(C)c2c(c1C)C(c1ccc(CCCCCCC(=O)O)cc1)C(C)(C)O2 (stereo unspecified)
81 | 186 to 187 °C | CSc1ccc(NC(C#N)c2ccc(C)cc2)cc1 (stereo unspecified)
82 | 125 °C | CC(=O)C=Cc1c(C)c(C)c(C)c2c1OC(C)(C)C2
83 | 106 to 108 °C | O=C(C1=C(Nc2ccccc2)CCC1)c1ccccc1Br

Row | melting point | Structure (SMILES)
84 | 108 to 111 °C | CCOC(=O)c1c(Cl)c2ccc(C)nc2n(C)c1=O
85 | 125 to 126 °C | COc1cccc(-c2ccc3cc(OC)ccc3c2Oc2ccc(O)cc2)c1
86 | 216 to 218 °C | CC(=O)OCCOc1ccc2oc3cc(-c4nnn[nH]4)ccc3c(=O)c2c1
87 | 93.5 to 94.5 °C | CC1(C)COC(CCc2ccc(N)cc2)OC1
88 | 234 °C | COc1ccc2[nH]cc(/C(C#N)=C/c3cccc(C(N)=O)c3)c2c1
89 | 230 °C | O=C(O)C1CC(O)CN1C(=O)c1ccc2c(c1)OCO2 (stereo unspecified)
90 | 163 to 165 °C | CCCCCCCCCCCCCCCC(=O)Nc1cccc(C(=O)O)c1C
91 | 99 to 100 °C | CCCN(CCC)c1c(C#N)cnn1-c1ccc(Cl)c(Cl)c1Cl
92 | 150 to 156 °C | CCc1ccccc1-c1cccc(-n2cnc(-c3nc(C)no3)c2)c1
93 | 112 to 115 °C | O=C(O)c1ccc(CCCC2SCC(=O)N2CC#CC2(O)CCCCC2)cc1 (stereo unspecified)
94 | 105 °C | CCc1cccc(C)c1CNc1nc(OCCOC)cc2c1nc(C)n2C
95 | 165 to 166 °C | CC(C)(C)c1cc(C(=O)c2cccs2)cc(CN2CCSCC2)c1O
96 | 110 to 111 °C | COc1cc(OC)cc(C(=O)NCCCSc2ccncc2)c1
97 | 124 °C | COc1cc(C(=O)c2ccc(CC(=O)O)s2)cc(OC)c1OC
98 | 148 to 149 °C | O=C(Nc1ccc(SC(F)(F)F)c(Cl)c1)c1cc(Cl)c2ccccc2c1O
99 | 126 to 127 °C | Cc1c(C)c2c(c(C)c1N)C(c1ccc(F)cc1)C(C)(C)O2 (stereo unspecified)
100 | 219 to 224 °C | COC(=O)C(C#N)c1nc(-c2c(F)cccc2F)cs1 (stereo unspecified)
101 | 110 °C | COc1ccc(Cl)c(Oc2c(C)nc(-c3ncccn3)nc2Cl)c1
